In PubChem BioAssay (NCI):
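Assay format: 96-well plates, 48-hour exposure. The concentration for full growth arrest is given as TGI.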

Tests used:
Experiment in all cases: DTP human tumour cell line panel, 48 h
[1] = test system: BT-549 breast
[2] = test system: CCRF-CEM leukemia
[3] = test system: IGROV1 ovarian
[4] = test system: K-562 leukemia
[5] = test system: KM12 colon
[6] = test system: NCI-H23 lung
[7] = test system: NCI-H522 lung
[8] = test system: RXF 393 renal
[9] = test system: SNB-19 CNS
[10] = test system: SNB-75 CNS
[11] = test system: UACC-257 melanoma
[12] = test system: UACC-62 melanoma
[13] = test system: HOP-92 NSCLC
[14] = test system: MALME-3M melanoma

| SMILES | TGI [1] [µM] | TGI [2] [µM] | TGI [3] [µM] | TGI [4] [µM] | TGI [5] [µM] | TGI [6] [µM] | TGI [7] [µM] | TGI [8] [µM] | TGI [9] [µM] | TGI [10] [µM] | TGI [11] [µM] | TGI [12] [µM] | TGI [13] [µM] | TGI [14] [µM] |
| --- | --- | --- | --- | --- | --- | --- | --- | --- | --- | --- | --- | --- | --- | --- |
| CC(=O)NC1C(OCC(=O)NCCNc2ccc([N+](=O)[O-])c3[nH]c4ccccc4c(=O)c23)C(O)C(CO)OC1(C)OCc1ccccc1 (stereo not given) | > 100 | > 100 | > 100 | > 100 | > 100 | > 100 | > 100 | > 100 | > 100 | > 100 | > 100 | > 100 | – | – |
| CN(NC1=NCCO1)c1ccc2ccccc2c1 | – | 49.5 | > 100 | 66.1 | > 100 | > 100 | > 100 | > 100 | > 100 | 74.7 | > 100 | > 100 | 57.3 | > 100 |
| CCN(/C=C1/C(=O)C(c2ccccc2)N(c2ccccc2)C1=O)CC (stereo not given) | > 10 | > 10 | > 10 | > 10 | > 10 | > 10 | > 10 | > 10 | > 10 | > 10 | > 10 | > 10 | – | > 10 |
| O=C1c2ccccc2N2OC3(N4CCOCC4)CCCC3C12c1ccccc1 (stereo not given) | – | > 100 | > 100 | > 100 | – | > 100 | > 100 | > 100 | > 100 | > 100 | > 100 | > 100 | > 100 | > 100 |
| CC(=O)OC1COC(N2CCc3cc([N+](=O)[O-])ccc32)C(OC(C)=O)C1OC(C)=O (stereo not given) | – | > 100 | > 100 | > 100 | > 100 | > 100 | > 100 | > 100 | > 100 | > 100 | > 100 | > 100 | > 100 | – |
| O=C(c1ccc(Cl)cc1)N(C(=O)N1CCCCC1)c1ccccc1 | > 100 | > 100 | > 100 | > 100 | > 100 | > 100 | – | – | > 100 | – | – | > 100 | – | > 100 |
| CCOC(=O)c1c(NC(=O)c2ccccc2)c(C#N)c2n1CCCCC2 | – | > 100 | > 100 | > 100 | > 100 | > 100 | > 100 | > 100 | > 100 | > 100 | > 100 | > 100 | > 100 | > 100 |
| C1CCC(N=C2N(C3CCCCC3)C(=NC3CCCCC3)N2C2CCCCC2)CC1 | – | > 100 | > 100 | > 100 | > 100 | > 100 | > 100 | > 100 | > 100 | > 100 | > 100 | > 100 | > 100 | > 100 |
| CN1CCOC(C(NC(=O)c2ccccc2)c2ccccc2)C1=O (stereo not given) | – | > 100 | > 100 | > 100 | > 100 | > 100 | > 100 | > 100 | > 100 | > 100 | > 100 | > 100 | > 100 | > 100 |
